# Assay results as given in US12642786B2, “Methods, compositions and kits for treating multiple sclerosis and other disorders” (The Johns Hopkins University, priority 2018, dated 2026).
# “Also recorded” adds a separate entry of the source.
# How the values were obtained:
# [1] = tested on: murine peritoneal macrophages (mPMs); test: mPM arginase-1 expression by Western blot; assay type: cell-based; details: IL-4 20 ng/mL
# Protocol: Cells were lysed by sonication in RIPA buffer supplemented with protease inhibitors, and protein concentration was measured by Bradford assay. Lysates were mixed with SDS sample buffer, boiled, and resolved by SDS/PAGE. Bands were transferred to PVDF Immobilon P membranes (Millipore) using a wet transfer, blocked in TBS-T containing 5% milk, and probed overnight at 4° C. with mouse monoclonal antibody against arginase-1 (Santa Cruz Biotechnology, catalog #sc-271430, 1:500). HRP-conjugated anti-mouse secondary antibody was from Jackson ImmunoResearch. Western blots were visualized using the SuperSignal West ECL system (Thermo Scientific), followed by film exposure. Blots were then stripped using Restore Western blot stripping buffer (Thermo Scientific, catalog #21059), blocked again as earlier, and probed overnight at 4° C. with HRP-conjugated anti-actin antibody before visualization as earlier. Quantitation was performed using ImageJ software.
# Mice aged 8-12 wk were injected intraperitoneally with 2 mL each of 3% sterile thioglycolate (BD Biosciences, catalog #211716) medium. […] Cells were then counted, equal numbers were plated into each well of appropriate cell culture dishes, and the cells were then incubated at 37° C. for 2-4 h to allow macrophage adhesion. […]
# [2] = tested on: corpus callosum, LPC demyelination; test: Lysolecithin (LPC)-induced demyelination, MBP staining; assay type: in vivo, C57BL/6J mice; details: 30 μg/kg IP at 3, 5, 7 and 9 dpl, assessed at 10 dpl
# Protocol: To evaluate the impact of systemic treatment with bryo-1 on physiologic demyelination in vivo, we conducted a lysolecithin (LPC)-induced demyelination animal study. LPC was stereotactically injected into the corpus callosum of 12-week old C57BL/6J mice. Bryo-1 (30 μg/kg) or vehicle was injected IP at 3, 5, 7, and 9 dpl followed by immunofluorescent assessment of MBP expression at 10 dpl.
# [3] = tested on: murine peritoneal macrophages (mPMs); test: mPM cytokine secretion by ELISA; assay type: cell-based; details: LPS 100 ng/mL, low-dose bryo-1
# Protocol: After overnight treatment of BMDCs or mPMs with LPS 100 ng/mL±bryo-1, culture supernatants were collected and cytokine production was assayed using ELISA kits for IL-12 p70 (catalog #88-7121-22), IL-6 (catalog #88-7064-22), and IL-10 (catalog #88-7105-22) purchased from eBioscience, according to manufacturer's instructions. Plates were read at 450 nm on a tabletop plate reader.
# Mice aged 8-12 wk were injected intraperitoneally with 2 mL each of 3% sterile thioglycolate (BD Biosciences, catalog #211716) medium. The mice were killed 3-5 d later, and cells were harvested by peritoneal lavage with ice-cold RPMI medium containing 2% FBS (FBS) and 1 unit/mL heparin. The cells were pelleted by centrifugation at 500×g for 8 min, washed in ice-cold RPMI containing 2% FBS alone, pelleted by centrifugation, and resuspended in ice-cold Spinner-modification minimum essential medium (SMEM; Sigma, M8167) supplemented with 10% FBS, 2 mM glutamine, and penicillin-streptomycin (SMEM-complete). Cells were then counted, equal numbers were plated into each well of appropriate cell culture dishes, and the cells were then incubated at 37° C. for 2-4 h to allow macrophage adhesion. Contaminating nonadherent cells were then removed by washing culture dishes five times with ice-cold sterile PBS. Fresh SMEM-complete was then added to the plates, which were incubated overnight at 37° C. […]
compound,measurement,setting,value
"CCC/C=C/C=C/C(=O)OC1/C(=C/C(=O)OC)CC2CC(C(C)O)OC(=O)CC(O)CC3CC(OC(C)=O)C(C)(C)C(O)(CC4C/C(=C/C(=O)OC)CC(/C=C/C(C)(C)C1(O)O2)O4)O3 (stereo not shown) [bryo-1, Bryostatin-1]",IL-4-induced expression of arginase-1,[1],augments expression; also recorded: potentiated
same,rate of oligodendrogenesis (MBP staining),[2],appears to have increased the rate of oligodendrogenesis
same,LPS-induced secretion of IL-6,[3],inhibited
same,LPS-induced secretion of IL-12,[3],inhibited
